We go through six molecules from patent US8648208B2, “Activating agent for peroxisome proliferator activated receptor” (Nippon Chemiphar Co. Ltd., priority 2008, dated 2014).

One may read the EC50 as the concentration at which the effect is half-maximal. For orientation: melting point means the temperature of the solid-liquid transition.

In one data set the target is T1, hPPARδ (LBD) (Homo sapiens, UniProt Q03181).
T1 construct: A receptor expression plasmid (pSG5-GAL4-hPPARα or γ or δ (LBD)); GAL4 (fusion partner); expressed in transfected cells; host or cells: CV-1 cells (ATCC)
T1 sequence (Q03181 211-439 limits assumed): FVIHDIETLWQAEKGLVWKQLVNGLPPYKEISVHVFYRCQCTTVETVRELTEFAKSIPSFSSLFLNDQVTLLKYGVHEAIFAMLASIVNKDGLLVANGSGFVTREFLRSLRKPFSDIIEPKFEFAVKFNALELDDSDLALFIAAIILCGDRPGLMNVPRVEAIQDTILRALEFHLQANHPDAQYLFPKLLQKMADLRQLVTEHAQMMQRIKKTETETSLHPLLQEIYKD
Description: PPAR activating effect, GAL4-hPPARδ LBD luciferase reporter transfection in CV-1 cells. The data set is classed as cell-based. The arrangement: activation: dose or concentration left out as unconfirmed. In general terms: In a reporter assay the amount or activity of a reporter protein is the signal.

The next data set addresses T2, hPPARγ (LBD) (Homo sapiens, UniProt P37231).
T2 construct: A receptor expression plasmid (pSG5-GAL4-hPPARα or γ or δ (LBD)); GAL4 (fusion partner); expressed in transfected cells; host or cells: CV-1 cells (ATCC)
T2 sequence (P37231 238-503 limits assumed): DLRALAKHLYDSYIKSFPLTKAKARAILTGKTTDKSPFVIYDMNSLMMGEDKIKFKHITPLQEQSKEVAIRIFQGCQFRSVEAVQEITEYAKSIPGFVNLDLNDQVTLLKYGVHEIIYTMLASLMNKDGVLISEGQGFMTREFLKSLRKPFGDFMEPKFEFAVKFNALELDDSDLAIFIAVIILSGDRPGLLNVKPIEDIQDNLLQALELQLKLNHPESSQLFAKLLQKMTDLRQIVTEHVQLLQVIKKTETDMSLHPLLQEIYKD
The data set is described as follows: PPAR activating effect, GAL4-hPPARγ LBD luciferase reporter transfection in CV-1 cells. The data set is classed as cell-based.

In the next data set the target is T3, hPPARα (LBD) (Homo sapiens, UniProt Q07869).
T3 construct: A receptor expression plasmid (pSG5-GAL4-hPPARα or γ or δ (LBD)); GAL4 (fusion partner); expressed in transfected cells; host or cells: CV-1 cells (ATCC)
T3 sequence (Q07869 239-466 limits assumed): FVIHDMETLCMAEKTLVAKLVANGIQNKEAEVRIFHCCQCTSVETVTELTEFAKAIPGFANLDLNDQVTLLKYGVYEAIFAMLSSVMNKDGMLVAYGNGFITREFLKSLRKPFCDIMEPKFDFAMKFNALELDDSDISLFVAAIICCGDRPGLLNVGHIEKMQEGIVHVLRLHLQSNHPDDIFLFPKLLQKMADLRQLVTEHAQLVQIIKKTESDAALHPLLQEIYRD
The data set is described as follows: PPAR activating effect, GAL4-hPPARα LBD luciferase reporter transfection in CV-1 cells. Type of data set: cell-based.

Setting [1] is: CV-1, 40 h, read-out: PPAR activity δ (relative value to control compound).
Where [2] appears, read: Table 26, test compound 10^-7 M, 100% = Rosiglitazone 10^-5 M.
Setting [3] is: Table 26, test compound 10^-7 M, 100% = GW-590735 10^-6 M.

On to `Cc1cc2c(CCc3sc4cc(C(F)(F)F)ccc4c3C(C)C)noc2cc1CCC(=O)O` [Example 21, 3-[3-[2-[3-Isopropyl-6-(trifluoromethyl)benzothiophen-2-yl]-ethyl]-5-methylbenzisoxazol-6-yl]propionic acid], for which the activation on hPPARδ (LBD) (setting [1]) was 94.2%. The EC50 on hPPARδ (LBD) (Table 25, CV-1 cells, method of Example 29, read-out: PPAR activity (EC50) δ) is 0.0013 µM; at hPPARγ (LBD) (Table 25, CV-1 cells, method of Example 29, read-out: PPAR activity (EC50) γ) it was above 10 µM; at hPPARα (LBD) (Table 25, CV-1 cells, method of Example 29, read-out: PPAR activity (EC50) α) it was above 10 µM. At hPPARδ (LBD) (compared with GW-501516, from EC50 α, γ, δ of Table 25), the “selectivity of PPAR δ-activating effect” value is reported as “superior to that of the GW-501516”. Also, the “PPAR activity γ (relative value to control compound)” value on hPPARγ (LBD) (Table 24, 100% = Rosiglitazone 10^-5 M, CV-1 cells, approx. 40 h) was “Inactive”. Further, on hPPARα (LBD) (Table 24, 100% = GW-590735 10^-6 M, CV-1 cells, approx. 40 h), the “PPAR activity α (relative value to control compound)” value is given as “Inactive”.

Consider `CCCc1c(CCC(=NO)c2cc(C)c(OCC(=O)O)cc2O)sc2cc(C(F)(F)F)ccc12` [Example 23, 5-Hydroxy-4-[1-hydroxyimino-3-[3-propyl-6-(trifluoromethyl)benzothiophen-2-yl]propyl]-2-methyl-phenoxyacetic acid], for which the activation at 0.1 µM on hPPARδ (LBD) (setting [1]) was 5.1%. Besides, at hPPARγ (LBD) (setting [2]), the “PPAR activity γ (relative value to control compound)” value is on record as “Inactive”. The “PPAR activity α (relative value to control compound)” value at hPPARα (LBD) (setting [3]) was “Inactive”.

Molecule `CCCc1c(CCc2noc3cc(N(C)CC(=O)O)c(C)cc23)sc2cc(C(F)(F)F)ccc12` [Example 24, N-[5-Methyl-3-[2-[3-propyl-6-(trifluoromethyl)benzothiophen-2-yl]ethyl]benzisoxazol-6-yl]-N-methylglycine] had a melting point of 147 to 149 °C. Also, at hPPARδ (LBD) (setting [1]), the activation at 0.1 µM was found to be 77.2%. Besides, at hPPARγ (LBD) (CV-1, 40 h, Table 26, test compound 10^-7 M, 100% = Rosiglitazone 10^-5 M, read-out: PPAR activity γ (relative value to control compound)), the activation at 0.1 µM was determined as 5.8%. For the same molecule, the activation at 0.1 µM on hPPARα (LBD) (CV-1, 40 h, Table 26, test compound 10^-7 M, 100% = GW-590735 10^-6 M, read-out: PPAR activity α (relative value to control compound)) was determined as 16.4%.

In the case of `CCCc1c(CCc2noc3cc(OCC(=O)O)c(C)cc23)sc2cc(C(F)(F)F)ccc12` [Example 25, [5-Methyl-3-[2-[3-propyl-6-(trifluoromethyl)benzothiophen-2-yl]ethyl]benzisoxazol-6-yloxy]acetic acid], on hPPARδ (LBD) (setting [1]), the activation at 0.1 µM worked out at 87.4%. Also, on hPPARγ (LBD) (setting [2]), the “PPAR activity γ (relative value to control compound)” value is recorded as “Inactive”. Further, the “PPAR activity α (relative value to control compound)” value on hPPARα (LBD) (setting [3]) is reported as “Inactive”.

Turning to `CCCc1c(CCc2noc3cc(CCC(=O)O)c(C)cc23)sc2cc(C(F)(F)F)ccc12` [Example 26, 3-[5-Methyl-3-[2-[3-propyl-6-(trifluoromethyl)benzothiophen-2-yl]ethyl]benzisoxazol-6-yl]propionic acid], at hPPARδ (LBD) (setting [1]), the activation at 0.1 µM was determined as 88.8%. In addition, the “PPAR activity γ (relative value to control compound)” value at hPPARγ (LBD) (setting [2]) is “Inactive”. Moreover, at hPPARα (LBD) (setting [3]), the “PPAR activity α (relative value to control compound)” value is given as “Inactive”.

Turning to `CC(C)c1c(CCc2noc3cc(N(C)CC(=O)O)ccc23)sc2cc(C(F)(F)F)ccc12` [Example 28, N-[3-[2-[3-Isopropyl-6-(trifluoromethyl)benzothiophen-2-yl]ethyl]benzisoxazol-6-yl]-N-methylglycine], the melting point fell in the range of 153 to 156 °C. Besides, the activation at 0.1 µM at hPPARδ (LBD) (setting [1]) amounted to 81.3%. The “PPAR activity γ (relative value to control compound)” value at hPPARγ (LBD) (setting [2]) was “Inactive”. Moreover, the “PPAR activity α (relative value to control compound)” value at hPPARα (LBD) (setting [3]) was “Inactive”.
